Where two headings read alike, the source gives them in different places.

One experiment concerns the target CrGluCl-A (Caligus rogercresseyi, UniProt A0A1W6LZ70). The conditions noted are these: cited from earlier work.
Experiment [1] relates to CrGluCl-B-Q279E-Y361F-Q327T triple mutant. Description: Voltage-clamp of oocytes expressing CrGluCl-B triple mutant. Type of experiment: cell-based, Caligus rogercresseyi. From the text:
To identify putative GluCl subunits, we queried the NCBI Transcriptome Shotgun Assembly Sequence (TSA) Database for “glutamate-gated chloride channel Caligus”. The obtained sequences were translated and BLASTed (tBLASTn) against the C. rogercresseyi genome (WGS, BioProject ID 280098, NCBI) and against transcripts of L. salmonis database (https://licebase.org/). Primers for each of the putative new subunit found were designed to span the full length of the open reading frame (ORF) for each of them (B-E) (S1 Table, and arrows in Fig 1). Complete cDNAs were generated by RT-PCR from adult C. rogercresseyi samples from which putative full-length peptide sequences of CrGluCl-B, CrGluCl-C, CrGluCl-D and CrGluCl-E were obtained. Each PCR product was cloned in pGEM-T easy vector and sequenced. To express the clones in Xenopus laevis oocytes, ORF of CrGluCl-B, -C, -D and -E were cloned in pGH19 vector from pGEM-Teasy/CrGluCl using the following restriction enzymes: BamHI and XbaI (-B) and EcoRI (-D and -E). CrGluCl-C was cloned first in pCR3.1 vector with NotI and then into pGH19 with SpeI/XbaI. The CrGluCl/pGH19 plasmid were linearized with NheI (-A and -B) or XhoI (-C, -D, -E) and used as template for the synthesis of capped cRNA (complementary RNA) using the mMessage Machine T7 kit. Mutations were made by site-directed mutagenesis using the QuickChange method and confirmed by sequencing. […]
(§1) Current measurements at controlled membrane potentials (voltage-clamp experiments) were performed using two intracellular microelectrodes in defolliculated Xenopus oocytes previously microinjected with 20 ng of cRNA. […] The oocytes were recorded in a chamber (Model RC-1Z, Warner Instrumenst, USA) under continuous superfusion. […] Currents were recorded continuously during the experiments without interruptions for solution changes. […] The signal filtered at 1 kHz was acquired with a Digidata 1440A Analog-to-Digital Converter and analyzed with Axon pClamp 10.6 software. […]

For experiment [2], the system named is coexpressed CrGluCl-E:CrGluCl-C. Description: Voltage-clamp of oocytes coexpressing CrGluCl-E and CrGluCl-C. The format is cell-based, Caligus rogercresseyi. The conditions noted are these: C:E ratio 1:1. The method, then:
(§2) Adult female Xenopus laevis frogs were anaesthetized by immersion in a1g/L solution tricaine (Ethyl 3-aminobenzoate methanesulfonate, Sigma) buffered to pH 7 with NaHCO3. Surgery was performed 30–40 min later, once the frog was completely anaesthetized judging by loss of reflexes. Ovarian lobes were removed through 1 cm abdominal incision and then kept at 16°C in Barth’s modified solution containing (in mM): 88 NaCl, 1 KCl, 0.4 CaCl2, 0.3 Ca (NO3)2, 0.8 MgSO4, 2.4 NaHCO3, 5 Hepes, 2.5 sodium pyruvate, 100 μg/ml gentamicin sulfate, 100 U/ml penicillin, 100 μg/ml streptomycin, 250 μg/ml amphotericin B, 0.22μm filtered and adjusted to pH 7.5 with Tris-Base. Osmolarity was brought to 220 mOsm with saccharose. The oocytes were manually defolliculated on the same day of extraction and the following day 20 ng cRNA in nuclease-free water was injected into stage V-VI oocytes using a FemtoJet microinjector (Eppendorf). Finally, the injected oocytes were stored in 96 well plates containing Barth’s modified solution and kept at 16°C until experiment day.
(§3) Current measurements at controlled membrane potentials (voltage-clamp experiments) were performed using two intracellular microelectrodes in defolliculated Xenopus oocytes previously microinjected with 20 ng of cRNA. Voltage-clamp recording was performed at room temperature using a TURBO TEC-10CX amplifier (npi electronic GmbH, Tamm, Germany) and PClamp 10.6 software (Axon Instruments, USA), 1 to 4 days after oocyte injection. The oocytes were recorded in a chamber (Model RC-1Z, Warner Instrumenst, USA) under continuous superfusion. […] Reference was an Ag-AgCl electrode connected to the bath via a 3 M KCl in 3% agar bridge. Currents were recorded continuously during the experiments without interruptions for solution changes. […] The signal filtered at 1 kHz was acquired with a Digidata 1440A Analog-to-Digital Converter and analyzed with Axon pClamp 10.6 software. […]

In a further experiment the test system is CrGluCl-E. Description: Two-electrode voltage-clamp of Xenopus oocytes expressing CrGluCl-E. Type of experiment: cell-based, Caligus rogercresseyi. Conditions: CrGluCl-E alone; glutamate up to 1mM, 1μM ivermectin. How it is done: as §2, with “The oocytes were manually defolliculated on the same day of extraction and the following day 20 ng cRNA in nuclease-free water was injected into stage V-VI oocytes using a FemtoJet microinjector (Eppendorf). Finally, the injected oocytes were stored in 96 well plates containing Barth’s modified solution and kept at 16°C until experiment day.” left out
as §1
(In general: In two-electrode clamp one electrode senses voltage and the other passes current.)

For a further experiment, the system named is CrGluCl-D. Type of experiment: cell-based, Caligus rogercresseyi. The conditions noted are these: CrGluCl-D spontaneous current. The method, then: as §2
(§4) Current measurements at controlled membrane potentials (voltage-clamp experiments) were performed using two intracellular microelectrodes in defolliculated Xenopus oocytes previously microinjected with 20 ng of cRNA. Voltage-clamp recording was performed at room temperature using a TURBO TEC-10CX amplifier (npi electronic GmbH, Tamm, Germany) and PClamp 10.6 software (Axon Instruments, USA), 1 to 4 days after oocyte injection. The oocytes were recorded in a chamber (Model RC-1Z, Warner Instrumenst, USA) under continuous superfusion. […] Reference was an Ag-AgCl electrode connected to the bath via a 3 M KCl in 3% agar bridge. Currents were recorded continuously during the experiments without interruptions for solution changes. Oocytes were held at -30 mV and a voltage protocol consisting of a voltage drop to -100 mV for 25ms followed by a 360 ms ramp from -100 mV to 60mV applied with a period of 565 ms was continuously given. The signal filtered at 1 kHz was acquired with a Digidata 1440A Analog-to-Digital Converter and analyzed with Axon pClamp 10.6 software. The solution that bathed the oocytes during the electrophysiological recordings had the following composition (mM): 115 NaCl, 2 KCl, 1.8 CaCl2, 1 MgCl2, 10 HEPES pH 7.5 obtained with NaOH. For the low chloride solution, all the NaCl was replaced with the gluconate salt of Na. This decreases chloride concentration from 122.6 to 7.6 mM while increasing that of gluconate from 0 to 115 mM. The stock solutions of the drugs in dimethyl sulfoxide (DMSO) were: 10 mM emamectin, 10 mM ivermectin, 100 mM picrotoxin. These were diluted in bath solution to obtain final concentrations.
(§5) The currents were normalized according to the extrapolated maximum current delivered by the Hill adjustment. In this way, the concentration that generates 50% of the maximum effect (EC50) and the Hill coefficient (nH) for each situation were obtained.

The test system of another experiment is CrGluCl-C. Type of experiment: cell-based, Caligus rogercresseyi. The conditions noted are these: for maximal current: CrGluCl-C, saturating concentration of agonist; for nH (ivermectin) / EC50: CrGluCl-C alone; for EC50: irreversible activation. The method, then: as §2, §4, §5
For experiment [3], the system named is coexpressed CrGluCl-C:CrGluCl-B. Description: Voltage-clamp of oocytes coexpressing CrGluCl-C and CrGluCl-B. The format is cell-based, Caligus rogercresseyi. Conditions: for Iver response to activation: B:C ratio 1:1, 1 μM ivermectin. The method, then:
as §2, §3

CrGluCl-A, sequence (A0A1W6LZ70 entry or part of it): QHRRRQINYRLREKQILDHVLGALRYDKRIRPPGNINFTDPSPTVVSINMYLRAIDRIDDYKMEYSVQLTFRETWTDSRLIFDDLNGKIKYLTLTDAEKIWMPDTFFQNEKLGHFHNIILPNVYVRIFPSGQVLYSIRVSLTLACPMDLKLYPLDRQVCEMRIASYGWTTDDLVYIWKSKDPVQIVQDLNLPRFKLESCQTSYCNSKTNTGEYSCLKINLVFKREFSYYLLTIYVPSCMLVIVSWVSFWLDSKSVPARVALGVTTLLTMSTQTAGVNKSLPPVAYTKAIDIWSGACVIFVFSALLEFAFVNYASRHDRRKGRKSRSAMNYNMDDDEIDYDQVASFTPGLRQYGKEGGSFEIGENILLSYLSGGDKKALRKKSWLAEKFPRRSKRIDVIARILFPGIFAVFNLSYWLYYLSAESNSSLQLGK

For `N[C@@H](CCC(=O)O)C(=O)O` [glutamate, L-glutamate], the “nH (glutamate), previously published” value at CrGluCl-A is reported as 1.33. In addition, the EC50 at CrGluCl-A (read-out: EC50 Glutamate, previously published) was 6900 nM; in experiment [1] (read-out: EC50 glutamate) it was 103000 ± 133000 nM; in experiment [2], 36500 ± 22500 nM; in experiment [3] (B:C ratio 1:1), 53000 ± 18800 nM. The “response (current activation)” value in the experiment on CrGluCl-E was “failed to show any response”. For the same compound, the direct activating effect result with CrGluCl-D is “lack a direct activating effect”. Further, in the experiment with CrGluCl-C, the maximal current was determined as 3.5 ± 1.7 μA.
For ivermectin, the “nH (ivermectin)” value was 2.1 at CrGluCl-A; 1.6 ± 0.22 in experiment [1]; 2.1 ± 0.67 in experiment [2]; 2.1 ± 0.7 in experiment [2] (listed as Iver); 2.1 in the experiment on CrGluCl-C; 2.1 ± 0.67 in the experiment with CrGluCl-C (listed as Ivermectin). Also, the EC50 at CrGluCl-A (listed as Ivermectin, read-out: EC50 Ivermectin / avermectin irreversible activation) was 181 nM; at CrGluCl-A (read-out: EC50 Ivermectin / avermectin irreversible activation), ~200 nM; in experiment [1] (read-out: EC50 ivermectin), 94 ± 54 nM; in the experiment on CrGluCl-C (listed as Ivermectin), 31 ± 14 nM; in the experiment with CrGluCl-C (read-out: EC50 Ivermectin), 31.1 ± 14.4 nM. The “response (current activation)” value in the experiment on CrGluCl-E is “failed to show any response”. The direct activating effect result in the experiment with CrGluCl-D is on record as “lack a direct activating effect”. For the same compound, the maximal current in the experiment with CrGluCl-C turned out to be 3.7 ± 1.3 μA. Moreover, the entries for the “Iver response to activation” value in experiment [3] and in experiment [3] (listed as Iver) were “failed to elicit a significant response” and “Insensitive”, respectively.

The record behind these values is paper PMC10038264, “A new family of glutamate-gated chloride channels in parasitic sea louse Caligus rogercresseyi: A subunit refractory to activation by ivermectin is dominant in heteromeric assemblies” (PLOS Pathogens, 2023).
